Biological target: CDK4 (Homo sapiens, UniProt P11802+Q16531)
Assay: CDK4 percentage degradation in Calu-1 cells (Table 6)
Type: cell-based
Set-up: Cells that express cyclin D1-3 and CDK4/6 proteins were treated with heterobifunctional compounds; endogenous in cells; host or cells: Calu-1
Settings: 16 hours; for inhibition at 0.04 µM: 40 nM; for inhibition at 0.2 µM: 200 nM
Summary of the method: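 Percentage degradation of Cyclin D1 and CDK4 derived from densitometry of ECL Western blots on lysates of Calu-1 cells. Treatment was 16 h with compound at either 40 nM or 200 nM.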

Sequence of CDK4 (P11802 2-303 limits assumed): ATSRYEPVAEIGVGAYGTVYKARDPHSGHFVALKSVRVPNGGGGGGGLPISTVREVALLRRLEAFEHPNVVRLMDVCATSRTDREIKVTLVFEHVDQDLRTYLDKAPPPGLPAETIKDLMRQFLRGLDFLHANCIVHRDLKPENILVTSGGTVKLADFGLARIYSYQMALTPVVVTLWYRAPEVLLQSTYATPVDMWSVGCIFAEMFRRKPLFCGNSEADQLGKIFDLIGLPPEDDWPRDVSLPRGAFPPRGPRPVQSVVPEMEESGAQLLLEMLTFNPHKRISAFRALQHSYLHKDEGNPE
Sequence of CDK4 (P24385 whole entry partner): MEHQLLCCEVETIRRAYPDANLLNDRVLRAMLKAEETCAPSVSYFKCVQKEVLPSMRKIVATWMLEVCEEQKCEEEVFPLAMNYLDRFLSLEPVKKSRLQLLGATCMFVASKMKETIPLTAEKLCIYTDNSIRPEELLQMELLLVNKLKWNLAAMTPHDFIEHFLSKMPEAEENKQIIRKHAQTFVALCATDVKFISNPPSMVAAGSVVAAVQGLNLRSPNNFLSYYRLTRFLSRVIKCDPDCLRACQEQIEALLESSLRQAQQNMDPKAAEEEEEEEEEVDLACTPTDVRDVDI
Sequence of CDK4 (Q16531 2-1140 limits assumed): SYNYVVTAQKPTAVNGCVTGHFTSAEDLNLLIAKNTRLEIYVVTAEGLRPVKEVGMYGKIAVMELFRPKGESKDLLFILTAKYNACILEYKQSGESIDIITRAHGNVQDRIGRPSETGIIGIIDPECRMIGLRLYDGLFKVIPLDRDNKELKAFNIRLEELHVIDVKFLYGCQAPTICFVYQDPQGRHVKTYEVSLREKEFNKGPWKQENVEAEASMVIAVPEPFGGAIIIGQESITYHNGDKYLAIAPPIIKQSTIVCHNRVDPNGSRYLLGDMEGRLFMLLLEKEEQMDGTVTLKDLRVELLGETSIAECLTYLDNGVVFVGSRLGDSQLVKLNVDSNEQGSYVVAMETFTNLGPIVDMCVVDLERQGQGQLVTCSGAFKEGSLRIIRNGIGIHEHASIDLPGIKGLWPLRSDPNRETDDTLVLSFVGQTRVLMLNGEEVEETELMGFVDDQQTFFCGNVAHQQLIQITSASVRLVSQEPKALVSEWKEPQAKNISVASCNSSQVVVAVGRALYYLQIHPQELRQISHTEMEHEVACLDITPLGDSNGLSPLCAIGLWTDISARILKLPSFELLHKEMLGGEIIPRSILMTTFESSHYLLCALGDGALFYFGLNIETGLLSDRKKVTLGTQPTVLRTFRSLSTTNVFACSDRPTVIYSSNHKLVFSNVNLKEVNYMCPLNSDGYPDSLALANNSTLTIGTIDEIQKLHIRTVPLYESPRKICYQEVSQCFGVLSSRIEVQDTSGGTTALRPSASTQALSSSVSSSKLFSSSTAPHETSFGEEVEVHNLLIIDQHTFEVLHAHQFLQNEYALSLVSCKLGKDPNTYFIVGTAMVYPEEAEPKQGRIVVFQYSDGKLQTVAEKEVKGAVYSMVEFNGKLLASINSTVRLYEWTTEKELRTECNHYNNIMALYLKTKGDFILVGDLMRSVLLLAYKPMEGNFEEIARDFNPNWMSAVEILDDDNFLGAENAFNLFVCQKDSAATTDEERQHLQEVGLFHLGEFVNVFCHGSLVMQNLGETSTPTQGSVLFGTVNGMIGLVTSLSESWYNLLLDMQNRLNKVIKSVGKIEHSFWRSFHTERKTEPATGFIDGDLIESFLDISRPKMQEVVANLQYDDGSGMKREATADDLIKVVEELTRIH

Row | inhibition at 0.04 µM [%] | inhibition at 0.2 µM [%] | Compound
1 | < 30 | < 30 | CNc1ccc(C(=O)NC2CC3(C2)CC(N(C)C)C3)c(NCCCCCNC(=O)CN2CCN(c3ccc(Nc4ncc5c(C)c(C(C)=O)c(=O)n(C6CCCC6)c5n4)nc3)CC2)n1 (stereo not shown) [CPD-67, 2-((5-(2-(4-(6-((6-Acetyl-8-cyclopentyl-5-methyl-7-oxo-7,8-dihydropyrido[2,3-d]pyrimidin-2-yl)amino)pyridin-3-yl)piperazin-1-yl)acetamido)pentyl)amino)-N-(6-(dimethylamino)spiro[3.3]heptan-2-yl)-6-(methylamino)nicotinamide]
2 | < 30 | < 30 | CNc1ccc(C(=O)Nc2ccc(C(C)C)nn2)c(NCCCCCNC(=O)CN2CCN(c3ccc(Nc4ncc5c(C)c(C(C)=O)c(=O)n(C6CCCC6)c5n4)nc3)CC2)n1 [CPD-15, 2-((5-(2-(4-(6-((6-Acetyl-8-cyclopentyl-5-methyl-7-oxo-7,8-dihydropyrido[2,3-d]pyrimidin-2-yl)amino)pyridin-3-yl)piperazin-1-yl)acetamido)pentyl)amino)-N-(6-isopropylpyridazin-3-yl)-6-(methylamino)nicotinamide]
3 | < 30 | 30 to 50 | CC(=O)c1c(C)c2cnc(Nc3ccc(N4CCN(CC(=O)NCCC5CC(Nc6cc(Cl)ccc6C(=O)Nc6ccc(N(C)C)nn6)C5)CC4)cn3)nc2n(C2CCCC2)c1=O (stereo not shown) [CPD-257, 2-((3-(2-(2-(4-(6-((6-Acetyl-8-cyclopentyl-5-methyl-7-oxo-7,8-dihydropyrido[2,3-d]pyrimidin-2-yl)amino)pyridin-3-yl)piperazin-1-yl)acetamido)ethyl)cyclobutyl)amino)-4-chloro-N-(6-(dimethylamino)pyridazin-3-yl)benzamide]
4 | < 30 | < 30 | CNc1ccc(C(=O)Nc2ccc(=O)[nH]n2)c(NCCCCCNC(=O)CN2CCN(c3ccc(Nc4ncc5c(C)c(C(C)=O)c(=O)n(C6CCCC6)c5n4)nc3)CC2)n1 [CPD-77, 2-((5-(2-(4-(6-((6-Acetyl-8-cyclopentyl-5-methyl-7-oxo-7,8-dihydropyrido[2,3-d]pyrimidin-2-yl)amino)pyridin-3-yl)piperazin-1-yl)acetamido)pentyl)amino)-6-(methylamino)-N-(6-oxo-1,6-dihydropyridazin-3-yl)nicotinamide]
5 | < 30 | 50 to 80 | CNc1ccc(C(=O)Nc2ccc(C)nn2)c(NCCCCCNC(=O)CN2CCN(c3ccc(Nc4ncc5c(C)c(C(C)=O)c(=O)n(C6CCCC6)c5n4)nc3)CC2)n1 [CPD-105, 2-((5-(2-(4-(6-((6-Acetyl-8-cyclopentyl-5-methyl-7-oxo-7,8-dihydropyrido[2,3-d]pyrimidin-2-yl)amino)pyridin-3-yl)piperazin-1-yl)acetamido)pentyl)amino)-6-(methylamino)-N-(6-methylpyridazin-3-yl)nicotinamide]
6 | < 30 | 30 to 50 | CC(=O)c1c(C)c2cnc(Nc3ccc(N4CCN(CC(=O)NC5CC6(C5)CC(Nc5nc(C)ccc5C(=O)Nc5cccc(C)n5)C6)CC4)cn3)nc2n(C2CCCC2)c1=O (stereo not shown) [CPD-191, 2-((6-(2-(4-(6-((6-acetyl-8-cyclopentyl-5-methyl-7-oxo-7,8-dihydropyrido[2,3-d]pyrimidin-2-yl)amino)pyridin-3-yl)piperazin-1-yl)acetamido)spiro[3.3]heptan-2-yl)amino)-6-methyl-N-(6-methylpyridin-2-yl)nicotinamide]
7 | < 30 | 30 to 50 | CNc1ccc(C(=O)Nc2ccc(N(C)C)nn2)c(NC[C@H]2CC[C@H](CNC(=O)N3CCN(c4ccc(Nc5ncc6c(C)c(C(C)=O)c(=O)n(C7CCCC7)c6n5)nc4)CC3)CC2)n1 [CPD-169, 4-(6-((6-acetyl-8-cyclopentyl-5-methyl-7-oxo-7,8-dihydropyrido[2,3-d]pyrimidin-2-yl)amino)pyridin-3-yl)-N-((trans-4-(((3-((6-(dimethylamino)pyridazin-3-yl)carbamoyl)-6-(methylamino)pyridin-2-yl)amino)methyl)cyclohexyl)menthyl)piperazine-1-carboxamide]
8 | < 30 | < 30 | CNc1ccc(C(=O)Nc2ccc(C(F)(F)F)c(C3CC3)n2)c(NC2CC3(CC(NC(=O)CN4CCN(c5ccc(Nc6ncc7c(C)c(C(C)=O)c(=O)n(C8CCCC8)c7n6)nc5)CC4)C3)C2)n1 (stereo not shown) [CPD-87, 2-((6-(2-(4-(6-((6-Acetyl-8-cyclopentyl-5-methyl-7-oxo-7,8-dihydropyrido[2,3-d]pyrimidin-2-yl)amino)pyridin-3-yl)piperazin-1-yl)acetamido)spiro[3.3]heptan-2-yl)amino)-N-(6-cyclopropyl-5-(trifluoromethyl)pyridin-2-yl)-6-(methylamino)nicotinamide]
9 | < 30 | 50 to 80 | CNc1ccc(C(=O)Nc2ccc(N(C)C)nn2)c(Nc2cnn(CCNC(=O)CN3CCN(c4ccc(Nc5ncc6c(C)c(C(C)=O)c(=O)n(C7CCCC7)c6n5)nc4)CC3)n2)n1 [CPD-25, 2-((2-(2-(2-(4-(6-((6-Acetyl-8-cyclopentyl-5-methyl-7-oxo-7,8-dihydropyrido[2,3-d]pyrimidin-2-yl)amino)pyridin-3-yl)piperazin-1-yl)acetamido)ethyl)-2H-1,2,3-triazol-4-yl)amino)-N-(6-(dimethylamino)pyridazin-3-yl)-6-(methylamino)nicotinamide]
10 | 50 to 80 | 50 to 80 | CNc1ccc(C(=O)Nc2ccc(N(C)C)nn2)c(NC2CC(NC(=O)C(C)(C)N3CCN(c4ccc(Nc5ncc6c(C)c(C(C)=O)c(=O)n(C7CCCC7)c6n5)nc4)CC3)C2)n1 (stereo not shown) [CPD-243, 2-((3-(2-(4-(6-((6-acetyl-8-cyclopentyl-5-methyl-7-oxo-7,8-dihydropyrido[2,3-d]pyrimidin-2-yl)amino)pyridin-3-yl)piperazin-1-yl)-2-methylpropanamido)cyclobutyl)amino)-N-(6-(dimethylamino)pyridazin-3-yl)-6-(methylamino)nicotinamide]
11 | < 30 | < 30 | CNc1ccc(C(=O)NC2CCC(N(C)C)C2)c(NCCCCCNC(=O)CN2CCN(c3ccc(Nc4ncc5c(C)c(C(C)=O)c(=O)n(C6CCCC6)c5n4)nc3)CC2)n1 (stereo not shown) [CPD-55, 2-((5-(2-(4-(6-((6-Acetyl-8-cyclopentyl-5-methyl-7-oxo-7,8-dihydropyrido[2,3-d]pyrimidin-2-yl)amino)pyridin-3-yl)piperazin-1-yl)acetamido)pentyl)amino)-N-(3-(dimethylamino)cyclopentyl)-6-(methylamino)nicotinamide]
12 | 50 to 80 | 50 to 80 | CNc1ccc(C(=O)Nc2cc(C)cc(C3CC3)n2)c(NCCCCCNC(=O)CN2CCN(c3ccc(Nc4ncc5c(C)c(C(C)=O)c(=O)n(C6CCCC6)c5n4)nc3)CC2)n1 [CPD-53, 2-((5-(2-(4-(6-((6-Acetyl-8-cyclopentyl-5-methyl-7-oxo-7,8-dihydropyrido[2,3-d]pyrimidin-2-yl)amino)pyridin-3-yl)piperazin-1-yl)acetamido)pentyl)amino)-N-(6-cyclopropyl-4-methylpyridin-2-yl)-6-(methylamino)nicotinamide]
13 | 30 to 50 | 50 to 80 | [2H]C([2H])([2H])Nc1ccc(C(=O)Nc2ccc(F)c(C3CC3)n2)c(NC2CC3(CC(NC(=O)CN4CCN(c5ccc(Nc6ncc7c(C)c(C(C)=O)c(=O)n(C8CCCC8)c7n6)nc5)CC4)C3)C2)n1 (stereo not shown) [CPD-239, 2-((6-(2-(4-(6-((6-acetyl-8-cyclopentyl-5-methyl-7-oxo-7,8-dihydropyrido[2,3-d]pyrimidin-2-yl)amino)pyridin-3-yl)piperazin-1-yl)acetamido)spiro[3.3]heptan-2-yl)amino)-N-(6-cyclopropyl-5-fluoropyridin-2-yl)-6-((methyl-da)amino)nicotinamide]
14 | 50 to 80 | > 80 | CNc1ccc(C(=O)Nc2ccc(N(C)C)nn2)c(NC2CC(COCC(=O)N3CCN(c4ccc(Nc5ncc6c(C)c(C(C)=O)c(=O)n(C7CCCC7)c6n5)nc4)CC3)C2)n1 (stereo not shown) [CPD-164, 2-((3-((2-(4-(6-((6-acetyl-8-cyclopentyl-5-methyl-7-oxo-7,8-dihydropyrido[2,3-d]pyrimidin-2-yl)amino)pyridin-3-yl)piperazin-1-yl)-2-oxoethoxy)methyl)cyclobutyl)amino)-N-(6-(dimethylamino)pyridazin-3-yl)-6-(methylamino)nicotinamide]
15 | < 30 | 30 to 50 | CC(=O)c1c(C)c2cnc(Nc3ccc(N4CCN(CC(=O)NCCCNc5nc(C)ccc5C(=O)Nc5nc(C)c(C)s5)CC4)cn3)nc2n(C2CCCC2)c1=O [CPD-1, 2-((3-(2-(4-(6-((6-Acetyl-8-cyclopentyl-5-methyl-7-oxo-7,8-dihydropyrido[2,3-d]pyrimidin-2-yl)amino)pyridin-3-yl)piperazin-1-yl)acetamido)propyl)amino)-N-(4,5-dimethylthiazol-2-yl)-6-methylnicotinamide]
16 | < 30 | 50 to 80 | CNc1ccc(C(=O)Nc2ccon2)c(NC2CC3(CC(NC(=O)CN4CCN(c5ccc(Nc6ncc7c(C)c(C(C)=O)c(=O)n(C8CCCC8)c7n6)nc5)CC4)C3)C2)n1 (stereo not shown) [CPD-159, 2-((6-(2-(4-(6-((6-acetyl-8-cyclopentyl-5-methyl-7-oxo-7,8-dihydropyrido[2,3-d]pyrimidin-2-yl)amino)pyridin-3-yl)piperazin-1-yl)acetamido)spiro[3.3]heptan-2-yl)amino)-N-(isoxazol-3-yl)-6-(methylamino)nicotinamide]
17 | < 30 | < 30 | CNc1ccc(C(=O)Nc2cc(C(C)C)n(C)n2)c(NC2CC3(CC(NC(=O)CN4CCN(c5ccc(Nc6ncc7c(C)c(C(C)=O)c(=O)n(C8CCCC8)c7n6)nc5)CC4)C3)C2)n1 (stereo not shown) [CPD-95, 2-((6-(2-(4-(6-((6-Acetyl-8-cyclopentyl-5-methyl-7-oxo-7,8-dihydropyrido[2,3-d]pyrimidin-2-yl)amino)pyridin-3-yl)piperazin-1-yl)acetamido)spiro[3.3]heptan-2-yl)amino)-N-(5-isopropyl-1-methyl-1H-pyrazol-3-yl)-6-(methylamino)nicotinamide]
